# Laboratory results published in patent US6716881B2, “Carbanilides used as pesticides” (Bayer Aktiengesellschaft, priority 1996, dated 2004).
# Tests used:
# [1] = tested on: Coniophora puteana; assay: Inhibitory test with giant colonies of Basidiomycetes (Coniophora puteana); assay type: cell-based; conditions: after 3 or 7 days at 26° C., vs untreated control; for Inhibition of the growth of the hypha in % with Coniophora puteana at an active compound concentration of 1 ppm: 1 ppm in agar; for Inhibition of the growth of the hypha in % with Coniophora puteana at an active compound concentration of 3 ppm: 3 ppm in agar; for Inhibition of the growth of the hypha in % with Coniophora puteana at an active compound concentration of 6 ppm: 6 ppm in agar
# Method: (§1) Inhibitory Test with Giant Colonies of Basidiomycetes.
# (§2) To produce a suitable preparation of active compound, 0.2 parts by weight of active compound are admixed with 99.8 parts by weight of the abovementioned solvent.
# (§3) An agar which has been prepared using malt extract peptone is mixed in the liquid state with the preparation of active compound at the particular desired application rate. After the agar has set, the resulting nutrient medium is incubated at 26° C. with pieces of mycelium which had been punched out of colonies of Coniophora puteana or Coriolus versicolor.
# (§4) Evaluation is carried out after 3 or 7 days' storage at 26° C. by measuring the growth of the hypha and scoring the resulting inhibition in percent in comparison to the untreated control. 0% means an inhibition of growth which corresponds to that of the untreated control, while an inhibition of growth of 100% means that no growth of the hypha is observed.
# [2] = tested on: Coriolus versicolor; assay: Inhibitory test with giant colonies of Basidiomycetes (Coriolus versicolor); assay type: cell-based; conditions: after 3 or 7 days at 26° C., vs untreated control; for Inhibition of the growth of the hypha in % with Coriolus versicolor at an active compound concentration of 1 ppm: 1 ppm in agar; for Inhibition of the growth of the hypha in % with Coriolus versicolor at an active compound concentration of 3 ppm: 3 ppm in agar; for Inhibition of the growth of the hypha in % with Coriolus versicolor at an active compound concentration of 6 ppm: 6 ppm in agar
# Method: as §1, §2, §3, §4
SMILES,Inhibition of the growth of the hypha in % with Coniophora puteana at an active compound concentration of 1 ppm [1],Inhibition of the growth of the hypha in % with Coniophora puteana at an active compound concentration of 3 ppm [1],Inhibition of the growth of the hypha in % with Coniophora puteana at an active compound concentration of 6 ppm [1],Inhibition of the growth of the hypha in % with Coriolus versicolor at an active compound concentration of 1 ppm [2],Inhibition of the growth of the hypha in % with Coriolus versicolor at an active compound concentration of 3 ppm [2],Inhibition of the growth of the hypha in % with Coriolus versicolor at an active compound concentration of 6 ppm [2]
CC1=C(C(=O)Nc2ccccc2COc2ccccc2C)SCCO1 [Example 144],70%,90%,100%,90%,100%,100%
Cc1ccc(OCc2ccccc2NC(=O)c2cn(C)nc2C(F)F)cc1 [Example 119],100%,100%,100%,100%,100%,100%
Cc1nn(C)c(Cl)c1C(=O)Nc1ccccc1CSc1ccccc1 [Example 39],70%,80%,90%,90%,100%,100%
Cn1cc(C(=O)Nc2ccccc2COc2ccccc2)c(C(F)F)n1 [Example 123],100%,100%,100%,100%,100%,100%
CC1=C(C(=O)Nc2ccccc2COc2ccc(C)cc2)SCCO1 [Example 143],80%,90%,100%,100%,100%,100%
Cc1cccc(OCc2ccccc2NC(=O)c2cn(C)nc2C(F)F)c1 [Example 139],100%,100%,100%,100%,100%,100%
Cc1nn(C)cc1C(=O)Nc1ccccc1C=Cc1ccccc1 [Example 18],70%,100%,100%,70%,100%,100%
Cc1ccc(OCc2ccccc2NC(=O)c2cn(C)nc2C(F)(F)F)c(C)c1 [Example 52],80%,90%,100%,90%,100%,100%
Cc1nc(C(F)(F)F)c(C(=O)Nc2ccccc2CSc2ccccc2)s1 [Example 40],50%,60%,70%,40%,70%,90%
CC1=C(C(=O)Nc2ccccc2OCc2ccc(C)cc2C)SCCO1 [Example 78],70%,80%,90%,90%,90%,100%
Cc1nc(C(F)(F)F)c(C(=O)Nc2ccccc2C=Cc2ccccc2)s1 [Example 5],70%,80%,100%,70%,90%,100%
Cc1ccc(SCc2ccccc2NC(=O)c2c(C)nn(C)c2Cl)cc1 [Example 45],70%,80%,90%,90%,100%,100%
CC1=C(C(=O)Nc2ccccc2COc2cccc(C)c2)SCCO1 [Example 142],70%,90%,100%,90%,90%,100%
Cc1nn(C)cc1C(=O)Nc1ccccc1CSc1ccc(Cl)cc1 [Example 81],70%,90%,100%,90%,90%,100%
CC1=C(C(=O)Nc2ccccc2COc2ccccc2)SCCO1 [Example 141],80%,100%,100%,90%,100%,100%
Cc1nn(C)c(Cl)c1C(=O)Nc1ccccc1CSc1ccc(Cl)cc1 [Example 84],80%,80%,100%,90%,100%,100%
